This assay addresses Human eIF4E (aa 28-217) / biotin labeled 4G2 peptide (Homo sapiens (Human), UniProt P06730). Description: Human eIF4E/4G2 binding assay (TR-FRET). The conditions noted are these: Human eIF4E/4G2 TR-FRET binding assay; head says IC50, legend says EC50. The protocol: Example 5. Compound Testing in Human eIF4E/4G2 Binding Assay
Human eIF4E (aa 28-217) with a C-terminal His-tag was expressed in E. coli in inclusion bodies. The protein was solubilized with 8 M urea and purified under denaturing conditions using nickel-charged HisTrap HP columns (GE Healthcare). The purified protein was then refolded by diluting in 20 mM Hepes pH 7.0, 0.5 M NaCl, 1 mM DTT, 1 mM EDTA, 0.5 M arginine plus 6 M urea, and then dialyzing overnight into the same buffer without the urea. The protein was further dialyzed into 20 mM Hepes, pH 6.5, 50 mM NaCl, 1 mM EDTA, 1 mM DTT, and concentrated using Hitrap SP sepharose FF columns (GE Healthcare). The concentrated protein was dialyzed into 20 mM Hepes, pH 7.0, 0.5M NaCl, 5 mM DTT and 10% glycerol, and stored at −80° C. until use.
Test compounds (3.43 mM stock in DMSO) were diluted 2-fold in series in DMSO (10 concentration points). Compound solutions (1.2 μl/well) were added into black 384-well polypropylene microplates (Matrix, Thermal Scientific). Twenty-two microliters per well of Assay Buffer (50 mM NaPi, pH 6.5, 50 mM KCl, 1 mM DTT and 0.5 mg/ml gamma globulin) and eight microliters per well of 82.5 nM purified eIF4E in Assay Buffer were added. The samples were incubated at room temperature (20-23° C.) for 4 hours. Biotin labeled 4G2 peptide (Ac-Lys-Gln-Tyr-Asp-Arg-Glu-Phe-Leu-Leu-Asp-Phe-Gln-Phe-Met-Pro-Lys(Aha-Bio)-NH2, 1.75 μM stock in DMSO) was diluted to 0.14 μM in Assay Buffer (without DTT) and 5 μl/well was added. The samples were incubated at room temperature for 20 min. Five microliters per well of 6.4 nM Eu-streptavidin (Eu-SA, Perkin Elmer) and 80 nM Allophycocyanin (APC)-anti His antibody (Columbia Biosciences) in Assay Buffer (without DTT) were then added and the samples were incubated at room temperature for 20 min.
Assay signals were monitored by reading excitation at 340 nm and emission fluorescence at 615 nm and 665 nm on an Envision reader (Perkin Elmer). Normalized TR-FRET (time-resolved fluorescence resonance energy transfer) assay signal (Rn) was calculated by the formula: Rn=[(A−Ba−C×D)/(D−Bd)]×(Dc−Bd) Where A is the fluorescence intensity of the sample at 665 nm, • D is the fluorescence intensity of the sample at 615 nm, • Ba and Bd are plate backgrounds at 665 nm and 615 nm, respectively, • Dc is the fluorescence intensity of 0.78 nM Eu-SA in the assay buffer at 615 nm The cross-talk factor (C) is determined by the following formula: C=(Ac−Ba)/(Dc−Bd) Where Ac is the fluorescence intensity of 0.78 nM Eu-SA in the assay buffer at 665 nm.
IC50 values were calculated using xLFit program (IDBS). Table 2 below lists EC50 of some compounds, wherein A represents EC50≤1 uM; B represents 1 uM<EC50≤10 uM; and C represents EC50>10 uM.
A general note: TR-FRET usually uses a lanthanide donor and a delayed reading to cut background.
Sequence of Human eIF4E (aa 28-217) / biotin labeled 4G2 peptide (P06730 28-217): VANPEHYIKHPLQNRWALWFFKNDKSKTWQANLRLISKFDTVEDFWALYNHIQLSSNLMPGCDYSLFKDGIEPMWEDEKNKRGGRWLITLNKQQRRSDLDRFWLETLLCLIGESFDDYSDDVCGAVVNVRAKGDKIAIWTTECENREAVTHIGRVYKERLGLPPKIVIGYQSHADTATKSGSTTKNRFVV
One may read the IC50 as the concentration that inhibits the measured activity by half. Read a high IC50 as a need for much substance. `CC(C)Cc1sc(Nc2cccc(C(F)(F)F)c2C(=O)O)nc1-c1ccc(Cl)c(Cl)c1` [I-236] returned an IC50 of no more than 1000 nM. For `CC(C)Cc1sc(N(CCc2nnn[nH]2)Cc2ccccc2)nc1-c1ccc(Cl)c(Cl)c1` [I-100], the IC50 was no more than 1000 nM.

With `CC(C)Cc1sc(Nc2ncc(-c3cccs3)cc2C(=O)O)nc1-c1ccc(OCC2CC2)c(Cl)c1` [I-332], the IC50 was no more than 1000 nM. In the case of `CC(C)Cc1sc(-c2ccc(-c3cccnc3)c(C(=O)O)c2)nc1-c1ccc(Cl)c(Cl)c1` [I-226] it was no more than 1000 nM; in that of `CC(C)Cc1sc(N2CCN(c3ccccc3)C(C(=O)O)C2)nc1-c1ccc(Cl)c(Cl)c1` (stereo not shown) [I-170], 1000 to 10000 nM.

`CC(C)Cc1sc(Nc2ccc(O)c(C(=O)O)c2)nc1-c1ccc(Cl)c(Cl)c1` [I-207, 5-(4-(3,4-dichlorophenyl)-5-isobutylthiazol-2-ylamino)-2-hydroxybenzoic acid] had an IC50 of 1000 to 10000 nM. In turn, `CC(C)Cc1sc(Nc2nccc(Cl)c2C(=O)O)nc1-c1ccc(Cl)c(Cl)c1` [I-242] gave an IC50 of no more than 1000 nM. In the case of `CC(C)Cc1sc(N2CCN(C(=O)c3cccs3)C(C(=O)O)C2)nc1-c1ccc(Cl)c(Cl)c1` (stereo not shown) [I-248] it was no more than 1000 nM. On to `CC(C)Cc1sc(Nc2ccncc2C(=O)O)nc1-c1ccc(Cl)c(Cl)c1` [I-254], for which the IC50 was 1000 to 10000 nM.

`CC(C)c1sc(NCC(Cc2c[nH]c3ccccc23)C(=O)O)nc1-c1ccc(Cl)c(Cl)c1` (stereo not shown) [I-9] returned an IC50 of 1000 to 10000 nM. In the case of `CC(C)Cc1sc(Nc2cccc(C(=O)O)n2)nc1-c1ccc(Cl)c(Cl)c1` [I-219] it was 1000 to 10000 nM. Take `O=C(O)C(CNc1nc(-c2ccc(Cl)c(Cl)c2)c(C2CC2)s1)Cc1cccc(O)c1` (stereo not shown) [I-13]: the IC50 lay in the range of 1000 to 10000 nM. The result for `CC(C)Cc1sc(NCC(Cc2cccnc2)C(=O)O)nc1-c1ccc(Cl)c(Cl)c1` (stereo not shown) [I-155] reads 1000 to 10000 nM. The result for `CC(C)c1sc(Nc2ncc(-c3ccccc3)cc2C(=O)O)nc1-c1ccc(Cl)c(Cl)c1` [I-259, 2-(4-(3,4-dichlorophenyl)-5-isopropylthiazol-2-ylamino)-5-phenylnicotinic acid] reads no more than 1000 nM; that for `C=C(C)c1sc(NCC(Cc2ccccc2)C(=O)O)nc1-c1ccc(Cl)c(Cl)c1` (stereo not shown) [I-185, 2-benzyl-3-(4-(3,4-dichlorophenyl)-5-(prop-1-en-2-yl)thiazol-2-ylamino)propanoic acid], 1000 to 10000 nM; that for `CC(C)c1sc(Nc2ncc(C3CC3)cc2C(=O)O)nc1-c1ccc(Cl)c(Cl)c1` [I-283], no more than 1000 nM. In the case of `COc1ccccc1CC(CNc1nc(-c2ccc(Cl)cc2)c(C(C)C)s1)C(=O)O` (stereo not shown) [I-40] it was 1000 to 10000 nM.

`CC(C)Cc1sc(N(CCC(=O)N2CCN(C)CC2)Cc2ccccc2)nc1-c1ccc(Cl)c(Cl)c1` [I-133, 3-(benzyl(4-(3,4-dichlorophenyl)-5-isobutylthiazol-2-yl)amino)-1-(4-methylpiperazin-1-yl)propan-1-one] displayed an IC50 greater than 10000 nM. The result for `CC(C)Cc1sc(N(CCCCCCN)CCC(=O)O)nc1-c1ccc(Cl)c(Cl)c1` [I-148] reads greater than 10000 nM; that for `CC(C)Cc1sc(N(CCC(=O)O)Cc2ccccc2Cl)nc1-c1ccc(Cl)c(Cl)c1` [I-108], no more than 1000 nM; that for `CC(C)Cc1sc(N(CCO)CCC(=O)O)nc1-c1ccc(Cl)c(Cl)c1` [I-66], 1000 to 10000 nM.

As to `CC(C)Cc1sc(N(CCC(=O)O)Cc2ccccc2)nc1-c1ccc(S(C)(=O)=O)cc1` [I-128, 3-(benzyl(5-isobutyl-4-(4-(methylsulfonyl)phenyl)thiazol-2-yl)amino)propanoic acid], the IC50 is greater than 10000 nM.

In turn, `CC(C)Cc1sc(N(CCCCCC(N)=O)CCC(=O)O)nc1-c1ccc(Cl)c(Cl)c1` [I-149] registered an IC50 greater than 10000 nM. The result for `CC(C)Cc1sc(N(CCC(=O)NS(=O)(=O)CCN)Cc2ccccc2)nc1-c1ccc(Cl)c(Cl)c1` [I-198] reads greater than 10000 nM. Consider `O=C(O)C(CNc1nc(-c2ccc(Cl)c(Cl)c2)c(C2CC2)s1)Cc1cccc2[nH]ccc12` (stereo not shown) [I-16], for which the IC50 was in the range of 1000 to 10000 nM.

For the compound `CC(C)Cc1sc(N2CCN(C(=O)CCN)C(C(=O)O)C2)nc1-c1ccc(Cl)c(Cl)c1` (stereo not shown) [I-199, 1-(3-aminopropanoyl)-4-(4-(3,4-dichlorophenyl)-5-isobutylthiazol-2-yl)piperazine-2-carboxylic acid], the IC50 was greater than 10000 nM. The result for `CC(C)Cc1sc(-c2cc(C(=O)O)c(F)cn2)nc1-c1ccc(Cl)c(Cl)c1` [I-240] reads 1000 to 10000 nM; that for `CSc1ccc(-c2nc(N(CCC(=O)O)Cc3ccccc3)sc2CC(C)C)cc1` [I-127], 1000 to 10000 nM; that for `CC(C)Cc1sc(N(Cc2ccccc2)CC(O)C(=O)O)nc1-c1ccc(Cl)c(Cl)c1` (stereo not shown) [I-190, 3-(benzyl(4-(3,4-dichlorophenyl)-5-isobutylthiazol-2-yl)amino)-2-hydroxypropanoic acid], no more than 1000 nM. In the case of `COc1cccc(-c2nc(NCC(Cc3ccccc3OC)C(=O)O)sc2C(C)C)c1` (stereo not shown) [I-30] it was 1000 to 10000 nM.

`COc1cccc(-c2nc(NCC(CCc3ccccc3)C(=O)O)sc2C(C)C)c1` (stereo not shown) [I-33] displayed an IC50 of 1000 to 10000 nM. In the case of `CC(C)c1sc(Nc2ncc(-c3ccccn3)cc2C(=O)O)nc1-c1ccc(Cl)c(Cl)c1` [I-282, 6′-(4-(3,4-dichlorophenyl)-5-isopropylthiazol-2-ylamino)-2,3′-bipyridine-5′-carboxylic acid], the half-inhibitory concentration (IC50) is no more than 1000 nM.

Compound `COc1ccc(CC(CNc2nc(-c3ccc(Cl)c(Cl)c3)c(CC(C)C)s2)C(=O)O)cn1` (stereo not shown) [I-163] yielded an IC50 of 1000 to 10000 nM. In the case of `COC(=O)c1ccc(Nc2nc(-c3ccc(Cl)c(Cl)c3)c(CC(C)C)s2)n1C` [I-287] it was greater than 10000 nM; in that of `CC(C)Cc1sc(N(CCC(=O)O)Cc2cccc(C(=O)NCCN)c2)nc1-c1ccc(Cl)c(Cl)c1` [I-205, 3-((3-(2-aminoethylcarbamoyl)benzyl)(4-(3,4-dichlorophenyl)-5-isobutylthiazol-2-yl)amino)propanoic acid], greater than 10000 nM; in that of `CC(C)Cc1sc(NCC(Cc2ccc(O)nc2)C(=O)O)nc1-c1ccc(Cl)c(Cl)c1` (stereo not shown) [I-162], 1000 to 10000 nM. The result for `CC(C)Cc1sc(NCC(Cc2ccccn2)C(=O)O)nc1-c1ccc(Cl)c(Cl)c1` (stereo not shown) [I-158] reads 1000 to 10000 nM; that for `CC(C)Cc1sc(N(CCC(=O)O)CCC(=O)O)nc1-c1ccc(Cl)c(Cl)c1` [I-58, 3,3′-(4-(3,4-dichlorophenyl)-5-isobutylthiazol-2-ylazanediyl)dipropanoic acid], greater than 10000 nM; that for `CC(C)c1sc(NCC(Cc2cccc3c2OCO3)C(=O)O)nc1-c1ccc(Cl)cc1` (stereo not shown) [I-39], 1000 to 10000 nM. In the case of `CCOC(=O)NC1CN(c2nc(-c3ccc(Cl)c(Cl)c3)c(CC(C)C)s2)C1=O` (stereo not shown) [I-139, ethyl 1-(4-(3,4-dichlorophenyl)-5-isobutylthiazol-2-yl)-2-oxoazetidin-3-ylcarbamate] it was 1000 to 10000 nM; in that of `CC(C)c1sc(Nc2ncc(C(F)(F)F)cc2C(=O)O)nc1-c1ccc(Cl)cc1Cl` [I-323, 2-(4-(2,4-dichlorophenyl)-5-isopropylthiazol-2-ylamino)-5-(trifluoromethyl)nicotinic acid], no more than 1000 nM.

Take `CC(C)Cc1sc(NCC(Cc2cnc(O)nc2)C(=O)O)nc1-c1ccc(Cl)c(Cl)c1` (stereo not shown) [I-159, 3-(4-(3,4-dichlorophenyl)-5-isobutylthiazol-2-ylamino)-2-((2-hydroxypyrimidin-5-yl)methyl)propanoic acid]: the IC50 was in the range of 1000 to 10000 nM. In the case of `CC(C)c1sc(NCC(Cc2cccc(O)c2)C(=O)O)nc1-c1ccc(Cl)c(Cl)c1` (stereo not shown) [I-4] it was 1000 to 10000 nM; in that of `CC(C)Cc1sc(N(CCCN(C)C)CCC(=O)O)nc1-c1ccc(Cl)c(Cl)c1` [I-71], greater than 10000 nM; in that of `Cc1noc(CN(CCC(=O)O)c2nc(-c3ccc(Cl)c(Cl)c3)c(CC(C)C)s2)n1` [I-68], 1000 to 10000 nM.

`CC(C)Cc1sc(NCC(CCCCN(C)C)C(=O)O)nc1-c1ccc(Cl)c(Cl)c1` (stereo not shown) [I-145, 2-((4-(3,4-dichlorophenyl)-5-isobutylthiazol-2-ylamino)methyl)-6-(dimethylamino) hexanoic acid] came in with a concentration for half-maximal inhibition (IC50) greater than 10000 nM.
